Measurements published in patent US11254668B2, “Pyrazolo[1,5-A]pyrazin-4-yl and related derivatives” (Pfizer Inc., priority 2017, dated 2022).
Read-outs that look alike come from different tables or passages of the source.

Key:
Format in all cases: biochemical
[1] = biological target: JAK3 (Homo sapiens (Human), UniProt P52333); experiment: JAK Caliper Enzyme Assay at 1 mM ATP, JAK3
Method in brief: (§1)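 IC50 (nM) derived from percent conversion of fluorescently labelled peptide, measured by Caliper LabChip mobility-shift separation after EDTA stop. Each JAK family kinase domain (human, recombinant) run at 1 mM ATP and room temperature, conditions set to 20-30% product; DMSO wells define uninhibited baseline.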

[2] = biological target: JAK2 (Homo sapiens (Human), UniProt O60674); experiment: JAK Caliper Enzyme Assay at 1 mM ATP, JAK2
Method in brief: (§2)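 First, compound was incubated at room temperature with recombinant human kinase domain, a synthetic peptide and 1 mM ATP until 20–30% of peptide was phosphorylated. Next, EDTA stopped the reaction. Finally, electrophoretic separation quantified product, and percent effect relative to controls was plotted against concentration.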

[3] = biological target: TYK2 (Homo sapiens (Human), UniProt P29597); experiment: JAK Caliper Enzyme Assay at 1 mM ATP, TYK2
Method in brief: as §2

[4] = biological target: JAK1 (Homo sapiens (Human), UniProt P23458); experiment: JAK Caliper Enzyme Assay at 1 mM ATP, JAK1
Method in brief: as §1

Sequence of JAK2 (O60674 849-1124): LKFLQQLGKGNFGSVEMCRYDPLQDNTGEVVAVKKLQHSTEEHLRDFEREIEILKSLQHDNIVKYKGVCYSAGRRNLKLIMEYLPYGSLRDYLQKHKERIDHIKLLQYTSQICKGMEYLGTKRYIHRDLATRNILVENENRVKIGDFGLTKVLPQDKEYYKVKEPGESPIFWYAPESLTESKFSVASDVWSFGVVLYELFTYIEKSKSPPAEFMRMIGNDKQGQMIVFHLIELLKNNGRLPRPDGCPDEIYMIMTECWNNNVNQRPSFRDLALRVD
Sequence of JAK1 (P23458 875-1153): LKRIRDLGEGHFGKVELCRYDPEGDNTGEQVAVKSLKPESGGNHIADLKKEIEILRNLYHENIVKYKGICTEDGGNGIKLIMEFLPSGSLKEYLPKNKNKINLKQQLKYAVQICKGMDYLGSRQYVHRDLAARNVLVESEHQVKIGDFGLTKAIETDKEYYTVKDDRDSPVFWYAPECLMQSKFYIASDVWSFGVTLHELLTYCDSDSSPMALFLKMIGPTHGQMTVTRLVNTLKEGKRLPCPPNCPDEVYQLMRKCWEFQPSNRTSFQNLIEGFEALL
Sequence of JAK3 (P52333 822-1111): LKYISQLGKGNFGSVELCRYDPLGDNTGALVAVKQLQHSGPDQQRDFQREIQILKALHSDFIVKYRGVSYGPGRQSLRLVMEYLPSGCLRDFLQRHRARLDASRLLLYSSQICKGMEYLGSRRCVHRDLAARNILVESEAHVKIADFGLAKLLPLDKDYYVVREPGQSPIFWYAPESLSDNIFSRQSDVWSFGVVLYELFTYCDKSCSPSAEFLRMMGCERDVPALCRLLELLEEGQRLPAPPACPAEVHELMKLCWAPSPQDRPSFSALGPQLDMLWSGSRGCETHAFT
Sequence of TYK2 (P29597 897-1176): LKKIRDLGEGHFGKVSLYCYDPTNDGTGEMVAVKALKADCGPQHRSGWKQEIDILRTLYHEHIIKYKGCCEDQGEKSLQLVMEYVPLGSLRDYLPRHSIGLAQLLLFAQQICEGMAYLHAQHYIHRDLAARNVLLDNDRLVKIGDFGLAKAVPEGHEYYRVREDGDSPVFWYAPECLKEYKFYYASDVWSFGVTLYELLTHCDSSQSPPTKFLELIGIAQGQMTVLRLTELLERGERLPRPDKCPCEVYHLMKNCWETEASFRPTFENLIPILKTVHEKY

| IC50 [1] [nM] | IC50 [2] [nM] | IC50 [3] [nM] | IC50 [4] [nM] | IC50 ([1]; JAK Caliper enzyme assay) [nM] | IC50 ([2]; JAK Caliper enzyme assay) [nM] | IC50 ([3]; JAK Caliper enzyme assay) [nM] | IC50 ([4]; JAK Caliper enzyme assay) [nM] | Compound |
| --- | --- | --- | --- | --- | --- | --- | --- | --- |
| > 10000 | 1660 | 309 | > 10000 | – | – | – | – | Cc1nc(-c2cc3ncccc3c(-c3ccn(C4(CC#N)CN(CC(F)(F)F)C4)n3)n2)cn1C [Example 151, [3-{3-[7-(1,2-dimethyl-1H-imidazol-4-yl)-1,6-naphthyridin-5-yl]-1H-pyrazol-1-yl}-1-(2,2,2-trifluoroethyl)azetidin-3-yl]acetonitrile] |
| > 10000 | 768 | 92 | 2140 | – | – | – | – | Cc1cc(-c2cc3ncccc3c(-c3ccn([C@]4(CC#N)C[C@@H](C#N)C4)n3)n2)cc(N)n1 [Example 220, trans-3-{3-[7-(2-amino-6-methylpyridin-4-yl)-1,6-naphthyridin-5-yl]-1H-pyrazol-1-yl}-3-(cyanomethyl)cyclobutanecarbonitrile] |
| > 10000 | 2970 | 573 | 3220 | – | – | – | – | C[C@]1(C#N)C[C@](CC#N)(n2ccc(-c3nc(-c4ccnc(N)c4)cc4ncccc34)n2)C1 [Example 200, trans-3-{3-[7-(2-aminopyridin-4-yl)-1,6-naphthyridin-5-yl]-1H-pyrazol-1-yl}-3-(cyanomethyl)-1-methylcyclobutanecarbonitrile] |
| > 10000 | 3420 | 290 | 9830 | – | – | – | – | Cc1nc(-c2cc3ncccc3c(-c3ccn(C4(CC#N)CN(CC(F)(F)F)C4)n3)n2)c[nH]1 [Example 150, [3-{3-[7-(2-methyl-1H-imidazol-4-yl)-1,6-naphthyridin-5-yl]-1H-pyrazol-1-yl}-1-(2,2,2-trifluoroethyl)azetidin-3-yl]acetonitrile] |
| – | – | – | – | > 10000 | 2190 | 281 | > 10000 | Cn1cc(-c2cn3ncnc3c(-c3cnn(C4(CC#N)CN(S(C)(=O)=O)C4)c3)n2)cn1 [Example 478, [3-{4-[6-(1-methyl-1H-pyrazol-4-yl)[1,2,4,5-a]pyrazin-8-yl]-1H-pyrazol-1-yl}-1-(methylsulfonyl)azetidin-3-yl]acetonitrile] |
| – | – | – | – | > 10000 | > 10000 | 4660 | > 10000 | CO[C@H]1C[C@](CC#N)(n2cc(-c3cc(-c4c[nH]nc4CO)cc4nccn34)cn2)C1 [Example 464, [trans-1-(4-{7-[3-(hydroxymethyl)-1H-pyrazol-4-yl]imidazo[1,2-a]pyridin-5-yl}-1H-pyrazol-1-yl)-3-methoxycyclobutyl]acetonitrile] |
| – | – | – | – | > 10000 | 468 | 36 | 912 | N#CC[C@]1(n2cc(-c3cc(-c4cc[nH]n4)cc4nccn34)cn2)C[C@@H](C#N)C1 [Example 454, cis-3-(cyanomethyl)-3-{4-[7-(1H-pyrazol-3-yl)imidazo[1,2-a]pyridin-5-yl]-1H-pyrazol-1-yl}cyclobutanecarbonitrile] |
| > 10000 | 8970 | 1920 | > 10000 | – | – | – | – | CS(=O)(=O)N1CC(CC#N)(n2ccc(-c3nc(-c4cnc(N)nc4)cc4ncccc34)n2)C1 [Example 238, [3-{3-[7-(2-aminopyrimidin-5-yl)-1,6-naphthyridin-5-yl]-1H-pyrazol-1-yl}-1-(methylsulfonyl)azetidin-3-yl]acetonitrile] |
| > 10000 | 1620 | 143 | 7700 | – | – | – | – | Cn1ncc(-c2cc(-c3cnn([C@]4(CC#N)C[C@@H](C#N)C4)n3)c3cccnc3c2)c1N [Example 330, trans-3-{4-[7-(5-amino-1-methyl-1H-pyrazol-4-yl)quinolin-5-yl]-2H-1,2,3-triazol-2-yl}-3-(cyanomethyl)cyclobutanecarbonitrile] |
| – | – | – | – | > 10000 | 1220 | 127 | 1530 | N#CC[C@]1(n2cc(-c3cc(-c4ccc(O)cc4)cc4nccn34)cn2)C[C@@H](C#N)C1 [Example 468, cis-3-(cyanomethyl)-3-{4-[7-(4-hydroxyphenyl)imidazo[1,2-a]pyridin-5-yl]-1H-pyrazol-1-yl}cyclobutanecarbonitrile] |
| > 10000 | 101 | 63 | 407 | – | – | – | – | CO[C@H]1C[C@@](CC#N)(n2cc(-c3nc(-c4cc(CO)n[nH]4)cc4ncccc34)cn2)C1 [Example 12, [cis-1-(4-{7-[3-(hydroxymethyl)-1H-pyrazol-5-yl]-1,6-naphthyridin-5-yl}-1H-pyrazol-1-yl)-3-methoxycyclobutyl]acetonitrile] |
| > 10000 | 240 | 25 | 381 | – | – | – | – | N#CC[C@]1(n2ccc(-c3nc(-c4ccn[nH]4)cc4ncccc34)n2)C[C@H](C#N)C1 [Example 20, trans-3-(cyanomethyl)-3-{3-[7-(1H-pyrazol-5-yl)-1,6-naphthyridin-5-yl]-1H-pyrazol-1-yl}cyclobutanecarbonitrile] |
| 4420 | 54 | 41 | 1040 | – | – | – | – | N#CCC1(n2ccc(-c3nc(-c4cnn(C5CCNCC5)c4)cc4ncccc34)n2)CN(CC(F)(F)F)C1 [Example 116, [3-(3-{7-[1-(piperidin-4-yl)-1H-pyrazol-4-yl]-1,6-naphthyridin-5-yl}-1H-pyrazol-1-yl)-1-(2,2,2-trifluoroethyl)azetidin-3-yl]acetonitrile] |
| > 10000 | > 10000 | 255 | > 10000 | – | – | – | – | CS(=O)(=O)N1CC(CC#N)(n2ccc(-c3nc(-c4ccccc4F)cc4ncccc34)n2)C1 [Example 258, [3-{3-[7-(2-fluorophenyl)-1,6-naphthyridin-5-yl]-1H-pyrazol-1-yl}-1-(methylsulfonyl)azetidin-3-yl]acetonitrile] |
| > 10000 | 7900 | 948 | 5760 | – | – | – | – | CC(=O)Nc1cc(-c2cc3ncccc3c(-c3ccn(C4(CC#N)CN(S(C)(=O)=O)C4)n3)n2)cnc1NC(C)=O [Example 231, N,N′-[5-(5-{1-[3-(cyanomethyl)-1-(methylsulfonyl)azetidin-3-yl]-1H-pyrazol-3-yl}-1,6-naphthyridin-7-yl)pyridine-2,3-diyl]diacetamide] |
| – | – | – | – | > 10000 | 411 | 69 | 4070 | CS(=O)(=O)Nc1cccc(-c2cc(-c3cnn(C4(CC#N)CC(C#N)C4)n3)c3cccnc3c2)n1 (stereo not drawn) [Example 373, N-[6-(5-{2-[trans-3-cyano-1-(cyanomethyl)cyclobutyl]-2H-1,2,3-triazol-4-yl}quinolin-7-yl)pyridin-2-yl]methanesulfonamide] |
| > 10000 | 902 | 80 | 2720 | – | – | – | – | COc1ccc(-c2cc3ncccc3c(-c3ccn(C4(CC#N)CN(CC(F)(F)F)C4)n3)n2)cn1 [Example 188, [3-{3-[7-(6-methoxypyridin-3-yl)-1,6-naphthyridin-5-yl]-1H-pyrazol-1-yl}-1-(2,2,2-trifluoroethyl)azetidin-3-yl]acetonitrile] |
| > 10000 | 3350 | 239 | 5840 | – | – | – | – | N#CCC1(n2ccc(-c3nc(-c4cn[nH]n4)cc4ncccc34)n2)CN(CC(F)(F)F)C1 [Example 153, [3-{3-[7-(2H-1,2,3-triazol-4-yl)-1,6-naphthyridin-5-yl]-1H-pyrazol-1-yl}-1-(2,2,2-trifluoroethyl)azetidin-3-yl]acetonitrile] |
| > 10000 | 388 | 27 | 608 | – | – | – | – | N#CCC1(n2ccc(-c3nc(-c4ccncc4)cc4ncccc34)n2)CN(CC(F)(F)F)C1 [Example 172, [3-{3-[7-(pyridin-4-yl)-1,6-naphthyridin-5-yl]-1H-pyrazol-1-yl}-1-(2,2,2-trifluoroethyl)azetidin-3-yl]acetonitrile] |
| > 10000 | 164 | 19 | 1380 | – | – | – | – | Cn1cc(-c2cc3ncccc3c(-c3ccn(C4(CC#N)CN(S(C)(=O)=O)C4)n3)n2)cn1 [Example 104, [3-{3-[7-(1-methyl-1H-pyrazol-4-yl)-1,6-naphthyridin-5-yl]-1H-pyrazol-1-yl}-1-(methylsulfonyl)azetidin-3-yl]acetonitrile] |
| > 10000 | 163 | 29 | 1880 | – | – | – | – | Cn1nc(-c2cc(-c3cnn([C@]4(CC#N)C[C@@H](C#N)C4)n3)c3cccnc3c2)cc1CO [Example 309, trans-3-(cyanomethyl)-3-(4-{7-[5-(hydroxymethyl)-1-methyl-1H-pyrazol-3-yl]quinolin-5-yl}-2H-1,2,3-triazol-2-yl)cyclobutanecarbonitrile] |
| – | – | – | – | > 10000 | 909 | 93 | 3140 | CS(=O)(=O)N1CC(CC#N)(n2ncc(-c3cc(-c4cccc(C(N)=O)c4)cc4ncccc34)n2)C1 [Example 430, 3-(5-{2-[3-(cyanomethyl)-1-(methylsulfonyl)azetidin-3-yl]-2H-1,2,3-triazol-4-yl}quinolin-7-yl)benzamide] |
| 1540 | 33 | 7 | 35 | – | – | – | – | N#CCC1(n2ccc(-c3nc(-c4cn[nH]c4)cc4ncccc34)n2)CC(C#N)C1 (stereo not drawn) [Example 76, cis-3-(cyanomethyl)-3-{3-[7-(1H-pyrazol-4-yl)-1,6-naphthyridin-5-yl]-1H-pyrazol-1-yl}cyclobutanecarbonitrile] |
| > 10000 | 532 | 96 | 994 | – | – | – | – | Cn1cc(-c2cc3ncccc3c(-c3ccn(C4(CC#N)CN(S(C)(=O)=O)C4)n3)n2)ccc1=O [Example 248, [3-{3-[7-(1-methyl-6-oxo-1,6-dihydropyridin-3-yl)-1,6-naphthyridin-5-yl]-1H-pyrazol-1-yl}-1-(methylsulfonyl)azetidin-3-yl]acetonitrile] |
